Active and inactive are the calls of the source. No cut-off for these calls is given here.
Key:
HepG2 [1] = assay: Induction of LDL uptake in human HepG2 cells at 5 uM incubated for 24 hrs by microplate reader analysis; type: functional, cell-based
HepG2 [2] = assay: Downregulation of LXRalpha protein level in nucleus of human HepG2 at 5 uM incubated for 24 hrs by Western blot analysis; type: functional, cell-based
[3] = Upregulation of LDLR protein level in human HepG2 cells at 5 uM incubated for 24 hrs by Western blot analysis relative to control; type: functional
HepG2 [4] = assay: Downregulation of IDOL mRNA level in human HepG2 cells at 5 uM incubated for 24 hrs by Q-PCR analysis; type: functional, cell-based
HepG2 [5] = assay: Inhibition of LXR activity in human HepG2 cells assessed as downregulation of ABCA1 level at 5 uM incubated for 24 hrs by Q-PCR analysis; type: cell-based
HepG2 [6] = assay: Inhibition of LXR activity in human HepG2 cells assessed as downregulation of SREBP-1c level at 5 uM incubated for 24 hrs by Q-PCR analysis; type: cell-based
[7] = Downregulation of IDOL protein level in human HepG2 cells at 5 uM incubated for 24 hrs by Western blot analysis relative to control; type: functional
Syrian golden hamster [8] = assay: Hypolipidemic activity in high fat diet induced Syrian golden hamster assessed as decrease in total cholesterol level at 30 mg/kg,ip administered once daily for 21 days by automatic biochemical analyzer; type: functional, organism-based; conditions: Mesocricetus auratus, time 21.0 day
Syrian golden hamster [9] = assay: Hypolipidemic activity in high fat diet induced Syrian golden hamster assessed as decrease in triglyceride level at 30 mg/kg,ip administered once daily for 21 days by automatic biochemical analyzer; type: functional, organism-based; conditions: Mesocricetus auratus, time 21.0 day
Syrian golden hamster [10] = assay: Hypolipidemic activity in high fat diet induced Syrian golden hamster assessed as decrease in low-density lipoprotein cholesterol level at 30 mg/kg,ip administered once daily for 21 days by automatic biochemical analyzer; type: functional, organism-based; conditions: Mesocricetus auratus, time 21.0 day
HepG2 [11] = assay: Upregulation of LDLR protein level in human HepG2 cells at 5 uM incubated for 24 hrs by Western blot analysis; type: functional, cell-based

With `O=c1cc2c(c(-c3ccc(-c4ccccc4)s3)o1)CCCC2` as the compound, how does the Activity (HepG2 [1]) read?
The Activity was “Active”.

Which Activity (HepG2 [1]) does the source give for `O=c1cc2c(c(-c3cccs3)o1)CCCC2` here?
Its Activity is “Active”.

And the Activity (HepG2 [2])?
Its Activity is “Active”.

What about the Activity [3] of the same compound?
Its Activity is 238%.

And the Activity (HepG2 [4])?
Its Activity is “Active”.

What about the inhibition (HepG2 [5]) of the same compound?
Its inhibition is “Active”.

What about the inhibition (HepG2 [6]) of the same compound?
The inhibition was “Active”.

What about the Activity [7] of the same compound?
Its Activity is 42%.

With `O=c1cc2c(c(-c3cc4ccccc4s3)o1)CCCC2` as the compound, how does the Activity (HepG2 [1]) read?
Its Activity is “Active”.

For `O=c1oc(-c2ccccc2)c2c3c1c1ccccc1n3CCC2`, which Activity (HepG2 [1]) is on record?
Its Activity is “Active”.

And the Activity (Syrian golden hamster [8])?
The Activity was “Active”.

And the Activity (Syrian golden hamster [9])?
The Activity was “Active”.

And the Activity (HepG2 [2])?
The Activity was “Active”.

And the Activity [3]?
Its Activity is 160%.

And the Activity (HepG2 [4])?
The Activity was “Active”.

What about the inhibition (HepG2 [5]) of the same compound?
The inhibition was “Active”.

And the inhibition (HepG2 [6])?
The inhibition was “Active”.

And the Activity (Syrian golden hamster [10])?
Its Activity is “Active”.

What about the Activity [7] of the same compound?
Its Activity is 28%.

For `O=c1cc2c(c(-c3cc4ccccc4o3)o1)CCCC2`, which Activity (HepG2 [1]) is on record?
The Activity was “Active”.

What does the source list for `COc1ccccc1-c1oc(=O)cc2c1CCCC2`?
Activity (HepG2 [11]): inactive; Activity (HepG2 [1]): Active

Which Activity (HepG2 [1]) does the source give for `O=c1oc(-c2cccs2)c2c3c1c1ccccc1n3CCC2` here?
The Activity was “Active”.

For `O=c1cc2c(c(-c3ccc(-c4cccs4)s3)o1)CCCC2`, which Activity (HepG2 [1]) is on record?
Its Activity is “Active”.
